Test results: patent US12180195B1, “6-(6-bromo-2-oxo-2H-chromen-3-yl)-4-(2,4-dichlorophenyl)-2-alkoxynicotinonitrile as an antimicrobial compound” (KING FAISAL UNIVERSITY, priority 2023, dated 2024)

How the values were obtained:
Assay type in all cases: cell-based
[1] = system: Chrysosporium keratinophilum; assay: Agar plate disc-diffusion, antifungal inhibition zone; details: Sabouraud's dextrose agar, 72 hours, DMSO zone subtracted
Protocol: (§1) The agar plate disc-diffusion method was applied. Sterilized filter papers (6 mm in diameter) were wetted with 10 μL of a solution of compounds 6-(6-bromo-2-oxo-2H-chromen-3-yl)-4-(2,4-dichlorophenyl)-2-ethoxynicotinonitrile 1 or 6-(6-bromo-2-oxo-2H-chromen-3-yl)-4-(2,4-dichlorophenyl)-2-methoxynicotinonitrile 2 to be tested, containing […], and the discs were allowed to air dry. The discs were then placed onto the surface of agar plates (nutrient agar for bacteria and Sabouraud's dextrose agar for fungi) seeded with the test organism. Each plate contained 15 mL of the agar medium, previously seeded with 0.2 mL of the broth culture of each organism pregrown for 18 hours. The plates were incubated at 37° C. for 48 hours, and 72 hours for fungi. The inhibition zones were measured in mm. Discs impregnated with DMSO were used as a control, and its inhibition zone was subtracted from the tested compound actual inhibition zone.
(§2) The results of the antimicrobial testing can be observed in Tables 1 and 2, below, using ciprofloxacin as a reference.

[2] = system: Aspergillus flavus; assay: as above; details: Sabouraud's dextrose agar, 72 hours, DMSO zone subtracted
Protocol: as §1, §2

[3] = system: Escherichia coli; assay: Agar plate disc-diffusion, antibacterial inhibition zone; details: nutrient agar, 37° C., 48 hours, DMSO zone subtracted
Protocol: as §1, §2

[4] = system: Pseudomonas aeruginosa; assay: as above; details: nutrient agar, 37° C., 48 hours, DMSO zone subtracted
Protocol: as §1, §2

[5] = system: Staphylococcus aureus; assay: as above; details: nutrient agar, 37° C., 48 hours, DMSO zone subtracted
Protocol: as §1, §2

[6] = system: Bacillus Cereus; assay: as above; details: nutrient agar, 37° C., 48 hours, DMSO zone subtracted
Protocol: as §1, §2

[7] = system: different microbes; assay: Antimicrobial testing, overall statement in words; details: summary of Tables 1 and 2, bacteria and fungi
Protocol: as §1
Their antibacterial activity was screened against gram positive bacteria namely Bacillus cereus and Staphylococcus aureus and gram-negative bacterial strains namely Pseudomonas aeruginosa and Escherichia coli, while their antifungal activity was screened against Aspergillus flavus and Chrysosporium keratinophilum.

[8] = A = concentration of comp. = 10,000 μL
[9] = B = concentration of comp. = 30,000 μL
[10] = C = concentration of comp. = 50,000 μL

Structure (SMILES) | inhibition zone [1, 8] [mm] | inhibition zone [1, 9] [mm] | inhibition zone [1, 10] [mm] | inhibition zone [2, 8] [mm] | inhibition zone [2, 9] [mm] | inhibition zone [2, 10] [mm] | inhibition zone [3, 8] [mm] | inhibition zone [3, 9] [mm] | inhibition zone [3, 10] [mm] | inhibition zone [4, 8] [mm] | inhibition zone [4, 9] [mm] | inhibition zone [4, 10] [mm] | inhibition zone [5, 8] [mm] | inhibition zone [5, 9] [mm] | inhibition zone [5, 10] [mm] | inhibition zone [6, 8] [mm] | inhibition zone [6, 9] [mm] | inhibition zone [6, 10] [mm] | antimicrobial activity (in words) [7]
O=C(O)c1cn(C2CC2)c2cc(N3CCNCC3)c(F)cc2c1=O [Cip., ciprofloxacin, reference compound] | 29 | 30 | 53 | 29 | 30 | 42 | 30 | 39 | 60 | 29 | 30 | 53 | 43 | 44 | 53 | 29 | 30 | 42 | –
CCOc1nc(-c2cc3cc(Br)ccc3oc2=O)cc(-c2ccc(Cl)cc2Cl)c1C#N [Compound 1, 6-(6-bromo-2-oxo-2H-chromen-3-yl)-4-(2,4-dichlorophenyl)-2-ethoxynicotinonitrile] | 22 | 33 | 39 | 26 | 28 | 39 | 30 | 38 | 54 | 24 | 31 | 42 | 13 | 20 | 27 | 26 | 27 | 38 | high antimicrobial activities
COc1nc(-c2cc3cc(Br)ccc3oc2=O)cc(-c2ccc(Cl)cc2Cl)c1C#N [Compound 2, 6-(6-bromo-2-oxo-2H-chromen-3-yl)-4-(2,4-dichlorophenyl)-2-methoxynicotinonitrile] | 28 | 29 | 46 | 17 | 21 | 29 | 28 | 37 | 49 | 24 | 27 | 42 | 14 | 21 | 25 | 27 | 28 | 40 | high antimicrobial activities
